Patent publication US20180177749A1, “USE OF CYP EXPRESSION TO DIRECT THERAPEUTIC INTERVENTION IN CANCER” (REGENTS OF THE UNIVERSITY OF MINNESOTA, priority 2016, published 2018)

What was measured:
MDA-MB-231 = assay: MTT cell proliferation assay, MDA-MB-231; type: cell-based, human
Experimental: (§1) The human breast cancer cell lines MCF-7, T47D, and MDA-MB-231 described above were grown in Minimal Essential Medium (MCF-7), RPMI 1640 with insulin (0.2 U/mL) and 1 mM Na pyruvate (T47D) or DMEM containing 10% fetal bovine serum (FBS) (MDA-MB-231), which was defined as complete medium (CM). Cells were grown at 37° C. in a 5% CO2 incubator. […] MTT was then added (5 mg/ml), and after 2 h of incubation, the plates were centrifuged. The supernatant was removed; DMSO was added, and the absorbance was read at 540 nm with a BioTek 96-well plate reader.

CYP4A11 = target: T1, CYP4A11 (Homo sapiens, UniProt Q02928); assay: CYP4A11-mediated EET biosynthesis; type: biochemical; conditions: 25 to 100 uM
T1 sequence (Q02928 5-519): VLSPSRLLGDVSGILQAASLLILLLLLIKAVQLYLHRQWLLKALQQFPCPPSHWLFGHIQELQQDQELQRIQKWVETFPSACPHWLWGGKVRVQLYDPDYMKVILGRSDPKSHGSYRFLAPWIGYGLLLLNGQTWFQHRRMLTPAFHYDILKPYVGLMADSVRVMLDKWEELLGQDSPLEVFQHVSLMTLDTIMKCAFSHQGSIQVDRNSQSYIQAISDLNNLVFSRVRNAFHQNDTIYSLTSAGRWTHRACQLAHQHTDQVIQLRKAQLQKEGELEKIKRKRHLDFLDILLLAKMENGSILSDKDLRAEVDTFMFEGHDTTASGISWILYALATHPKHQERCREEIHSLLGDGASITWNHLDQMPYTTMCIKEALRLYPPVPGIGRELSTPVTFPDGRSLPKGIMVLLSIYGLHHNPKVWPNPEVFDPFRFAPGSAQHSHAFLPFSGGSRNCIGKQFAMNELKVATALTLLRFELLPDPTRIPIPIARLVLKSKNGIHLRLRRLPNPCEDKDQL

MDA-MB-231 cells = assay: JC-1 mitochondrial membrane potential staining, MDA-MB-231; type: cell-based, human; conditions: HBB 20 μM 4 hours, (±)-14,15-EET 1 μM
Experimental: Cells were grown in chamber slides at 37° C. with 5% CO2 and treated with DMSO or HBB for 4 hours before JC-1 dye was added for the MCF-7 or MDA-MB-231 cell line. […] Images of red fluorescence (590 nm) and green fluorescence (530 nm) were acquired using an Olympus 1X70 microscope fitted with an Olympus DP70 digital camera (Olympus, Tokyo, Japan).

T47D = assay: MTT cell proliferation assay, T47D; type: cell-based, human
Experimental: as §1

CCCCCCNC(=N)NC(=N)NCc1ccccc1 [HBB, N1-hexyl-N5-benzyl-biguanide]
IC50 (MDA-MB-231; Homo sapiens, MDA-MB-231, Triple negative): 20.5 µM
growth inhibition abrogated by concurrent (±)-14,15-EET (MDA-MB-231; MDA-MB-231, (±)-14,15-EET 1 μM, 24 hours): no dependence on (±)-14,15-EET
inhibition of EET production by CYP4A11 (CYP4A11): only weakly
mitochondrial membrane potential (ΔΨm), JC-1 (MDA-MB-231 cells): caused mitochondrial depolarization
growth inhibition abrogated by concurrent (±)-14,15-EET (T47D; (±)-14,15-EET 1 μM, 24 hours): abrogated most of the inhibition
IC50 (T47D; Homo sapiens, ER+[PR+]): 25.1 µM
